This note sets out measurements from patent US20240116921A1, “LACTAM (HETERO)[…] DERIVATIVES AS INHIBITORS OF ERBB2” (EnLiven Therapeutics, Inc., priority 2020, published 2024).

Test [1] deals with BaF3_EGFR-H773_V774insNPH (Homo sapiens, UniProt P00533, DUP771-773, cells depend on it). The test can be described thus: Cell viability assay, BaF3_EGFR-H773_V774insNPH. In kind it is cell-based, mouse. The note with it: 72 hours, CellTiter Glo, read-out: IC50, cell viability, BaF3_EGFR-H773_V774insNPH. How it is done:
(§1) Cells were treated with compounds, and cell viability was measured as a metric of kinase inhibition.
(§2) The Ba/F3 cell line is IL-3-dependent mouse cell line derived from the C3H mouse strain. Ba/F3 cell lines were engineered to express human ERBB2 or EGFR kinases, rendering the cells IL-3 independent. The lines were generated via retroviral transduction utilizing a Moloney murine leukemia virus (MMLV) promoter, and constructs are stably integrated into the cell genome. The sequences of the ERBB2 and EGFR genes used were NCBI Reference Sequences NM_004448.3 and NM_005228.3, respectively.
(§3) Similarly, Ba/F3 cell lines engineered to express EGFR, ERBB2, or ERBB2 mutants were grown, harvested, counted and seeded at 3000 cells per well in 96-well plates. A subset of wells contained media only (low control, “LC”).
(§4) Table B1 provides the growth media and number of cells seeded per well for the each cell line.
(§5) Plates were placed in a 37° C., 5% CO2 incubator for 72 hours. Plates were then removed from the incubator and equilibrated for 15 minutes at room temperature. 40 μl of CellTiter Glo reagent (Promega) was added to measure the relative level of metabolically active cells by quantifying intracellular ATP concentrations. Plates were incubated for 30 minutes at room temperature, and luminescence was measured. […]
For orientation: In ATP-based viability assays light output follows the ATP content of the culture.

The target in the next test is Ba/F3 EGFR wt (Homo sapiens, UniProt P00533). The test can be described thus: Cell viability assay, Ba/F3 EGFR wt. The test is classed as cell-based, mouse. Particulars: Ba/F3 EGFR wt cells, 72 hours, CellTiter Glo; read-out: IC50, cell viability, Ba/F3 EGFR wt. The method, then:
as §1, §2, §3, §4, §5

Bounds are passed on as bounds.

Ba/F3 EGFR wt, sequence (P00533 whole entry, change not shown): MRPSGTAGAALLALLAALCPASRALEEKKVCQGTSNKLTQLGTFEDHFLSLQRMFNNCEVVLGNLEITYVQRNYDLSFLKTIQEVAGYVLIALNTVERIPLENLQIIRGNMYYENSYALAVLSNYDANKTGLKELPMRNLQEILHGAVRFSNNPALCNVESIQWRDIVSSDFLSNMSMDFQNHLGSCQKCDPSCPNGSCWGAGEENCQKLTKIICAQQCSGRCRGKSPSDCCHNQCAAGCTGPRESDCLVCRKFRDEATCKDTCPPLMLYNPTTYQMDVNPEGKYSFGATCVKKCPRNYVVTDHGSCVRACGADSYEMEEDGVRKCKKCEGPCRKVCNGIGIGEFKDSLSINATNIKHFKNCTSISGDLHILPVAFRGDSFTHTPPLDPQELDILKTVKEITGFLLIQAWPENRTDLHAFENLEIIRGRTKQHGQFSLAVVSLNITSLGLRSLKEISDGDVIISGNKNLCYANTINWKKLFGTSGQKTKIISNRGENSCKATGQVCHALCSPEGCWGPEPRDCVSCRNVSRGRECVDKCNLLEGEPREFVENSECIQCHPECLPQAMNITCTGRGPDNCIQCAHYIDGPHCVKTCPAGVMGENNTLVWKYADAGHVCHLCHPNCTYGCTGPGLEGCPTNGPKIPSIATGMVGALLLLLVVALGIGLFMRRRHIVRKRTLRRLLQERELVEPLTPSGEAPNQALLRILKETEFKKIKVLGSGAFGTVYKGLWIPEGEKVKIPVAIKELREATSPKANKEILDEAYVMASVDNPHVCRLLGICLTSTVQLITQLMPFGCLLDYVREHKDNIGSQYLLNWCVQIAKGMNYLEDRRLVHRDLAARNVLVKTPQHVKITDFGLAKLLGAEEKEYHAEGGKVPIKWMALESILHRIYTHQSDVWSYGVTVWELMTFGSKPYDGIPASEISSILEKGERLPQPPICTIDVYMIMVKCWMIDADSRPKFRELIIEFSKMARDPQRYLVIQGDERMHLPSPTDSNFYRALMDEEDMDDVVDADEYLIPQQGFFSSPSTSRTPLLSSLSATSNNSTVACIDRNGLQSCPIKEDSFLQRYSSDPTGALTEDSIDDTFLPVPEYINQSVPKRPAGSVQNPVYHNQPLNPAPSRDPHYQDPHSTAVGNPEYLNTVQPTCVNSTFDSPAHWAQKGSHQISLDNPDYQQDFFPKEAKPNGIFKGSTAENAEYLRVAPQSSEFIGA
BaF3_EGFR-H773_V774insNPH, sequence (P00533 with tags, fused parts or gaps DUP771-773): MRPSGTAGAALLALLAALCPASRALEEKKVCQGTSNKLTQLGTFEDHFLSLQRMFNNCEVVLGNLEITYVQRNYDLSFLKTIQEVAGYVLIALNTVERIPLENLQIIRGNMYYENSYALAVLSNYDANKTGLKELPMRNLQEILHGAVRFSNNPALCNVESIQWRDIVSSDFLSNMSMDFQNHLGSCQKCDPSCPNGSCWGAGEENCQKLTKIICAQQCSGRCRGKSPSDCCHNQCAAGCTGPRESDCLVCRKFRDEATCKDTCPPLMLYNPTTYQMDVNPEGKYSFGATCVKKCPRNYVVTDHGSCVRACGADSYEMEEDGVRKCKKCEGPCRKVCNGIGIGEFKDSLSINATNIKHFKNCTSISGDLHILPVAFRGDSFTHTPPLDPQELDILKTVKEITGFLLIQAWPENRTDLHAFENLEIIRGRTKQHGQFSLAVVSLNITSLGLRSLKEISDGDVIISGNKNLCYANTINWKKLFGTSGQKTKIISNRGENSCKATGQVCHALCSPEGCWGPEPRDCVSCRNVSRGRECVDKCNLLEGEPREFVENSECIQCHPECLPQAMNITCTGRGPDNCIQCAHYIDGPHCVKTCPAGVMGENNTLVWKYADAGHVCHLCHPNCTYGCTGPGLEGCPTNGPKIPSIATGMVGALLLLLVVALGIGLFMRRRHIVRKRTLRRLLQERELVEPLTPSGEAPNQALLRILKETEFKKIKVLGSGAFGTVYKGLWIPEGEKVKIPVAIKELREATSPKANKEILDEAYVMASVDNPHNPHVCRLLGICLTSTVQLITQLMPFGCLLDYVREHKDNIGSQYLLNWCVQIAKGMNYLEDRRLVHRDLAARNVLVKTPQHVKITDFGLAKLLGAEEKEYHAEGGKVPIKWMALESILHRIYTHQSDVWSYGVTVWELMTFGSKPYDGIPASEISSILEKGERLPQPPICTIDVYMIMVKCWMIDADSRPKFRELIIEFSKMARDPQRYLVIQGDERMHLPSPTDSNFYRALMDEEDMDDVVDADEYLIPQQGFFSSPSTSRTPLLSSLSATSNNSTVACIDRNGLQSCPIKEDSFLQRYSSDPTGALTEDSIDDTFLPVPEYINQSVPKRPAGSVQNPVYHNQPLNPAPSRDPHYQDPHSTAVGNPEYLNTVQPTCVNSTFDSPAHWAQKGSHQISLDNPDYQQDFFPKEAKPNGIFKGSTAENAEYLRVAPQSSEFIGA

Turning to `C=C1CCN(c2ccc3ncnc(Nc4ccc(Oc5ccn6ncnc6c5)c(C)c4)c3c2)C1=O` [Compound 1, 1-[4-[(3-methyl-4-[[1,2,4]triazolo[1,5-a]pyridin-7-yloxy]phenyl)amino]quinazolin-6-yl]-3-methylidenepyrrolidin-2-one], the GI50 in test [1] is 9.83 µM; at Ba/F3 EGFR wt it was over 10 µM.
